{"source": "patent EP1954678B1", "about": "“NOVEL NK1 AND NK2 ANTAGONISTS” (Abbott Products GmbH, priority 2005, dated 2007)", "key": {"[1]": {"biological_target": "T1, human NK2 receptors (Homo sapiens, UniProt P21452)", "T1 construct": "expressed in transfected cells; host or cells: CHO cells (membrane preparation)", "T1 sequence (P21452 1-398)": "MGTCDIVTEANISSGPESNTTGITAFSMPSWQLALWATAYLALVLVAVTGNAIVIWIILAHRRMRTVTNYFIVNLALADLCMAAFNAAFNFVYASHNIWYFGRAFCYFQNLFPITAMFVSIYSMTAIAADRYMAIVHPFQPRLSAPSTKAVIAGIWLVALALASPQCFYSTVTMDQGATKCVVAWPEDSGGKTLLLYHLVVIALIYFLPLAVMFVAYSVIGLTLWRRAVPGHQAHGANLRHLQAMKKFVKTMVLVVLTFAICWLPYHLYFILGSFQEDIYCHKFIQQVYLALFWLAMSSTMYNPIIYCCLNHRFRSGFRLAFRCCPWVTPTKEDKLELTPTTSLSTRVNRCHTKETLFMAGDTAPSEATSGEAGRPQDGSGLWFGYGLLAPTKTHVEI", "experiment": "Binding of the test substances to NK2 receptors in vitro ([3H]-SR 48968 displacement, CHO cell membranes)", "conditions": "[3H]-SR 48968 as ligand; membranes of CHO cells expressing the human NK2 receptor; 90 min incubation; Ki calculated from IC50; read-out: pKi (NK2) (converted)", "method": "The affinity of the test substances to human NK2 receptors was measured in vitro. The ability of the test substances to displace the selective NK2 receptor antagonist SR 48968 (= saredutant) used as reference ligand from its corresponding bond was determined.\nThe receptor binding studies were carried out with radioactively marked [^3H]-SR 48968 (from Amersham) as ligand. For the binding test, different samples of a membrane preparation of CHO cells (= egg cells of the Chinese hamster, Chinese hamster oocytes), which express the human NK2 receptor (for preparation, see N.P. Gerard et al., Journal of Biological Chemistry 265/33 (1990) 20455-20462), were incubated for 90 minutes (= min.) with a solution of the marked ligand, with the incubation mixtures containing no test substance or additions of different concentrations of test substance. Then in each case the membrane-bound ligands in the samples were separated from free ligands by filtration. The fraction remaining in the filter was washed several times with buffer solution, before its radioactivity was measured using a liquid scintillation counter. That concentration which effects half-maximum displacement of the bound reference ligand was determined as IC50 of the respective test substance. The inhibition constant (Ki value) of the test substance was calculated from the respective IC50 value, and was stated as the negative logarithmised value thereof (pKi).\nIf several measurements were performed, the average thereof was listed each time. The pKi value is a measurement of the affinity of the test substances to human NK2 receptors."}, "[2]": {"biological_target": "T2, human NK1 receptors (Homo sapiens, UniProt P25103)", "T2 construct": "expressed in transfected cells; host or cells: CHO cells (membrane preparation)", "T2 sequence (P25103 whole entry)": "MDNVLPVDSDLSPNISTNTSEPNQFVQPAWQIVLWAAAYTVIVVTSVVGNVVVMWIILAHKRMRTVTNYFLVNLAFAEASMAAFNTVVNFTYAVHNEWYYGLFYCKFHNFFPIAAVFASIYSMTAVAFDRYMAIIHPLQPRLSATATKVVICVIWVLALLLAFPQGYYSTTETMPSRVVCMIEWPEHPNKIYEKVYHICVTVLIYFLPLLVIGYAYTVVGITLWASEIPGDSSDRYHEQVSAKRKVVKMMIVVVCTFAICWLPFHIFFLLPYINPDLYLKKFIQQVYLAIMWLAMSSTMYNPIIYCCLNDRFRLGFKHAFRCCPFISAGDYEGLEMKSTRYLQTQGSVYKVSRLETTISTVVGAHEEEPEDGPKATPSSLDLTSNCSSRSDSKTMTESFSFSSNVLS", "experiment": "Binding of the test substances to NK1 receptors in vitro ([3H]-Substance P displacement, CHO cell membranes)", "conditions": "[3H]-Substance P as ligand; membranes of CHO cells expressing the human NK1 receptor; Ki calculated from IC50; read-out: pKi (NK1) (converted)", "method": "In The Netherlands, the affinity of the test substances to human NK1 receptors was measured in vitro.\nThe receptor binding studies were performed with [^3H]-Substance P as ligand. For the binding test, different samples of a membrane preparation of CHO cells (= egg cells of the Chinese hamster, Chinese hamster oocytes), which express the human NK1 receptor (\"Accession Number\" of the associated nucleic acid sequence = M74290; \"Accession Number\" of the associated protein sequence = P25103; cf. Takeda, Y.; Chou, K. B., Takeda, J.; Sachais, B.S. and Krause, J. E; Biochemical and Biophysical Research Communications, 179(3) (1991) 1232 - 1240), were incubated with a solution of the marked ligand, with the incubation mixtures containing no test substance or additions of different concentrations of test substance. Then, separation of bound and free ligands was performed in each of the samples with the aid of glass-fibre filtration. The fraction remaining in the filter was washed several times with buffer solution and then the radioactivity of the fraction remaining in the filter was measured using a beta scintillation counter.\nFor the compounds of Examples 1 to 14, that concentration which effects half maximum displacement of the bound ligand was determined as IC50 of the respective test substance. From this, the corresponding inhibition constant (Ki value) of the test substance was calculated, and was stated as the negative common logarithm of the Ki value (= pKi value). The pKi value is a measurement of the affinity of the test substances to human NK1 receptors."}, "[3]": {"biological_target": "NK1 receptors (Cavia porcellus, UniProt P30547)", "sequence (P30547 whole entry)": "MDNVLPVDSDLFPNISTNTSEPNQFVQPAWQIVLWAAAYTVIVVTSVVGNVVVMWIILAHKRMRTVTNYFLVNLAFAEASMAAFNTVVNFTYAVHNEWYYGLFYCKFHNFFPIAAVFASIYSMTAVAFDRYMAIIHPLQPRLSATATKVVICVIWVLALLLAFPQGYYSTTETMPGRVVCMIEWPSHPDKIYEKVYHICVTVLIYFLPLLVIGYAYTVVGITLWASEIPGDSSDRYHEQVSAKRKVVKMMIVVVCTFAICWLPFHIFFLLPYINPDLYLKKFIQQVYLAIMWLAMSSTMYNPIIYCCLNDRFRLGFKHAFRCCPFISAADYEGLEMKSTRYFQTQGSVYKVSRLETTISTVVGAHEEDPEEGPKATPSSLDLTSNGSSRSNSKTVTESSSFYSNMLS", "experiment": "Functional NK1 antagonism on isolated guinea pig aorta ring preparations (Substance P induced relaxation)", "set-up": "from tissue; host or cells: guinea pig aorta ring preparations; species or system Pirbright-White guinea pigs", "method": "In The Netherlands, the action antagonistic to NK1 receptors of the test substances was measured in vitro on isolated ring preparations, kept in an oxygenated nutrient solution, of the aortas of Pirbright-White guinea pigs.\nIn order to measure the contraction of the vessel muscles, the preparations were fixed to a hook, joined by a thread to a force measuring apparatus and the contractions were recorded in each case on a plotter. The aorta preparations were tonicised with phenylephrine. […] The relaxations before and after the administration of the test substance were quantified in percent. The effective concentration of the half maximum inhibition of the relaxation of the tone (= EC50) was calculated. The negative common logarithm of the EC50 value (= pEC50) was given as characteristic variable. The pEC50 value is a measurement of the functional effectiveness of the test substances on NK1 receptors."}}, "note": "pEC50: −log10 of the molar value.", "data": [{"molecule": "CN(C[C@@H](CCN1CCN([C@@H](c2ccco2)[C@H](O)CO)CC1)c1ccc(Cl)c(Cl)c1)C(=O)c1cc(C#N)cc2ccccc12", "note": "[Compound 1, 3-cyano-N-[(2S)-2-(3,4-dichlorophenyl)-4-{4-[(1R,2S)-1-(2-furyl)-2,3-dihydroxypropyl]piperazin-1-yl}butyl]-N-methyl-1-naphthamide]", "values": [{"measurement": "Ki", "setting": "[1]", "result": 7.94, "unit": "nM"}, {"measurement": "Ki", "setting": "[2]", "result": 3.98, "unit": "nM"}, {"measurement": "pEC50", "setting": "[3]", "result": 9.40}]}, {"molecule": "CN(C[C@@H](CCN1CCN([C@@H](c2ccco2)[C@H](O)[C@@H](O)[C@H](O)CO)CC1)c1ccc(Cl)c(Cl)c1)C(=O)c1cc(C#N)cc2ccccc12", "note": "[Compound 2, 3-cyano-N-[(2S)-2-(3,4-dichlorophenyl)-4-{4-[(1R,2S,3R,4R)-1-(2-furyl)-2,3,4,5-tetrahydroxypentyl]piperazin-1-yl}butyl]-N-methyl-1-naphthamide]", "values": [{"measurement": "Ki", "setting": "[1]", "result": 79.4, "unit": "nM"}, {"measurement": "Ki", "setting": "[2]", "result": 3.16, "unit": "nM"}, {"measurement": "pEC50", "setting": "[3]", "result": 9.50}]}, {"molecule": "CN(C[C@@H](CCN1CCN(C(CO)(CO)c2ccco2)CC1)c1ccc(Cl)c(Cl)c1)C(=O)c1cc(C#N)cc2ccccc12", "note": "[Compound 6, 3-cyano-N-[(2S)-2-(3,4-dichlorophenyl)-4-{4-[1-(2-furyl)-2-hydroxy-1-(hydroxymethyl)ethyl]piperazin-1-yl}butyl]-N-methyl-1-naphthamide]", "values": [{"measurement": "Ki", "setting": "[1]", "result": 39.8, "unit": "nM"}, {"measurement": "Ki", "setting": "[2]", "result": 5.01, "unit": "nM"}, {"measurement": "pEC50", "setting": "[3]", "result": 9.40}]}, {"molecule": "CN(C[C@@H](CCN1CCN([C@@H](c2ccco2)[C@H]2COC(=O)O2)CC1)c1ccc(Cl)c(Cl)c1)C(=O)c1cc(C#N)cc2ccccc12", "note": "[Compound 11, 3-cya no-N-[(2S)-2-(3,4-dichlorophenyl)-4-(4-{(R)-2-furyl[(4S)-2-oxo-1,3-dioxolan-4-yl]methyl}piperazin-1-yl)butyl]-N-methyl-1-naphthamide]", "values": [{"measurement": "Ki", "setting": "[1]", "result": 25.1, "unit": "nM"}, {"measurement": "Ki", "setting": "[2]", "result": 7.94, "unit": "nM"}, {"measurement": "pEC50", "setting": "[3]", "result": 8.90}]}]}
